Holding throughout (type): cell-based
For test [1], the system named is HCT116 KO-MTAP cells. Description: PRMT5 cell SDMA assay, MTAP KO cells. The conditions noted are these: Homo sapiens, HCT-116; HCT116 MTAP KO, 48 hours; read-out: Cell SDMA IC50 (μM) (MTAP KO).
Test [2] has as its system HCT116 WT cells. Description: PRMT5 cell SDMA assay, MTAP WT cells. Particulars: Homo sapiens, HCT-116; HCT116 MTAP WT, 48 hours; read-out: Cell SDMA IC50 (μM) (MTAP WT).
Test [3] deals with HCT116 KO-MTAP cells. As to the kind of experiment: Cell proliferation assay (Alamar Blue), MTAP KO cells. Particulars: Homo sapiens, HCT-116, 120 h; HCT116 MTAP KO, 5 days; read-out: Cell proliferation IC50 (μM) (MTAP KO). The procedure: (§1) Cell Proliferation Assays:
(§2) A day 0 plate is created in parallel but not dosed, after plating 4 μl of Alamar Blue (Thermo #DAL1100) and incubate for 3 h at 37 C, 5% CO2.
(§3) The dosed cell plates were then incubated for 5 days at 37° C. before adding Alamar blue and being read in the Envision following same protocol as for first plate.
For orientation: Alamar Blue is a resazurin reagent that responds to reducing activity.

Test [4] concerns HCT116 WT cells. Description: Cell proliferation assay (Alamar Blue), MTAP WT cells. The conditions noted are these: Homo sapiens, HCT-116, 120 h, 5 days. The procedure: as §1, §2, §3

As to `Nc1nc2cc(CN3C(=O)c4cc(F)ccc4[C@]34CCN(Cc3cc(F)ccc3F)C4=O)[nH]c2cc1F` [Example 7, (S)-2-((5-Amino-6-fluoro-1H-pyrrolo[3,2-b]pyridin-2-yl)methyl)-1′-(2,5-difluorobenzyl)-5-fluorospiro[isoindoline-1,3′-pyrrolidine]-2′,3-dione], the IC50 in test [1] is 0.0017 µM; in test [2], 0.036 µM.

`Nc1nc2cc(CN3C(=O)c4cc(F)ccc4[C@]34CCN(Cc3ccno3)C4=O)[nH]c2cc1F` [Example 13, (S)-2-((5-Amino-6-fluoro-1H-pyrrolo[3,2-b]pyridin-2-yl)methyl)-5-fluoro-1′-(isoxazol-5-ylmethyl)spiro[isoindoline-1,3′-pyrrolidine]-2′,3-dione]: the IC50 in test [1] is 0.0084 µM; in test [2], 0.34 µM.

Regarding `Nc1nc2cc(CN3C(=O)c4cc(F)ccc4[C@]34CCN(Cc3cc(C(F)(F)F)cnn3)C4=O)[nH]c2cc1F` [Example 14, (S)-2-((5-Amino-6-fluoro-1H-pyrrolo[3,2-b]pyridin-2-yl)methyl)-5-fluoro-1′-((5-(trifluoromethyl)pyridazin-3-yl)methyl)spiro[isoindoline-1,3′-pyrrolidine]-2′,3-dione], the IC50 in test [1] was 0.006 µM; in test [2] it was 0.088 µM.

Turning to `Nc1nc2cc(CN3C(=O)c4cc(F)ccc4[C@]34CCN(Cc3nc5ccccc5o3)C4=O)[nH]c2cc1F` [Example 16, (S)-2-((5-Amino-6-fluoro-1H-pyrrolo[3,2-b]pyridin-2-yl)methyl)-1′-(benzo[d]oxazol-2-ylmethyl)-5-fluorospiro[isoindoline-1,3′-pyrrolidine]-2′,3-dione], the IC50 in test [1] stood at 0.0051 µM; in test [2] it was 0.23 µM.

With `C[C@H]1C[C@@]2(C(=O)N1C)c1ccc(F)cc1C(=O)N2Cc1cc2nc(N)c(F)cc2[nH]1` (single isomer, unassigned) [Example 29], the IC50 was 0.018 µM in test [1] and 0.81 µM in test [2].

Turning to `C[C@@H](N1CC[C@@]2(C1=O)c1ccc(F)cc1C(=O)N2Cc1cc2nc(N)c(F)cc2[nH]1)C1(C)CC1` (relative stereo) [Example 19, (S)-2-((5-Amino-6-fluoro-1H-pyrrolo[3,2-b]pyridin-2-yl)methyl)-5-fluoro-1′-((R*)-1-(1-methylcyclopropyl)ethyl)spiro[isoindoline-1,3′-pyrrolidine]-2′,3-dione], the IC50 in test [1] was 0.032 µM; in test [2], 0.86 µM.

Consider `Nc1nc2cc(CN3C(=O)c4cc(F)ccc4[C@]34CCN(Cc3ncccc3F)C4=O)[nH]c2cc1F` [Example 12, (S)-2-((5-Amino-6-fluoro-1H-pyrrolo[3,2-b]pyridin-2-yl)methyl)-5-fluoro-1′-((3-fluoropyridin-2-yl)methyl)spiro[isoindoline-1,3′-pyrrolidine]-2′,3-dione], for which the IC50 is 0.0088 µM in test [1] and 0.43 µM in test [2].

Turning to `Cc1cc(N)nc2[nH]c(CN3C(=O)c4cc(F)ccc4[C@]34CCN(Cc3cc(F)c(F)cc3F)C4=O)cc12` [Example 28, (S)-2-((6-Amino-4-methyl-1H-pyrrolo[2,3-b]pyridin-2-yl)methyl)-5-fluoro-1′-(2,4,5-trifluorobenzyl)spiro[isoindoline-1,3′-pyrrolidine]-2′,3-dione], the IC50 in test [3] worked out at 0.13 µM; in test [1] it was 0.0028 µM; in test [2] it was 0.071 µM; in test [4], 1.4 µM.

For the molecule `Cc1ncsc1CCN1CC[C@@]2(C1=O)c1ccc(F)cc1C(=O)N2Cc1cc2nc(N)c(F)cc2[nH]1` [Example 18, (S)-2-((5-Amino-6-fluoro-1H-pyrrolo[3,2-b]pyridin-2-yl)methyl)-5-fluoro-1′-(2-(4-methylthiazol-5-yl)ethyl)spiro[isoindoline-1,3′-pyrrolidine]-2′,3-dione], the IC50 was 0.0066 µM in test [1] and 0.37 µM in test [2].

As to `Nc1nc2cc(CN3C(=O)c4cc(F)ccc4[C@]34CCN(CCOc3ccc(F)cc3)C4=O)[nH]c2cc1F` [Example 17, (S)-2-((5-Amino-6-fluoro-1H-pyrrolo[3,2-b]pyridin-2-yl)methyl)-5-fluoro-1′-(2-(4-fluorophenoxy)ethyl)spiro[isoindoline-1,3′-pyrrolidine]-2′,3-dione], the results for the IC50 in test [1] and in test [2] were 0.0068 µM and 0.42 µM, respectively.

Turning to `COc1cc(F)cc2c1[C@]1(CCN(C)C1=O)N(Cc1cc3nc(N)c(F)cc3[nH]1)C2=O` [Example 24, (S)-2-((5-Amino-6-fluoro-1H-pyrrolo[3,2-b]pyridin-2-yl)methyl)-5-fluoro-7-methoxy-1′-methylspiro[isoindoline-1,3′-pyrrolidine]-2′,3-dione], the IC50 in test [1] came out at 0.032 µM; in test [2] it was 1.2 µM.

As for `Nc1nc2cc(CN3C(=O)c4cc(F)ccc4[C@]34CCN(CC3(CF)CC3)C4=O)[nH]c2cc1F` [Example 9, (S)-2-((5-Amino-6-fluoro-1H-pyrrolo[3,2-b]pyridin-2-yl)methyl)-5-fluoro-1′-((1-(fluoromethyl)cyclopropyl)methyl)spiro[isoindoline-1,3′-pyrrolidine]-2′,3-dione], the IC50 stood at 0.015 µM in test [1] and 0.53 µM in test [2].

Regarding `Cn1ncc2cc(CN3CC[C@@]4(C3=O)c3ccc(F)cc3C(=O)N4Cc3cc4nc(N)c(F)cc4[nH]3)ccc21` [Example 15, (S)-2-((5-Amino-6-fluoro-1H-pyrrolo[3,2-b]pyridin-2-yl)methyl)-5-fluoro-1′-((1-methyl-1H-indazol-5-yl)methyl)spiro[isoindoline-1,3′-pyrrolidine]-2′,3-dione], the IC50 turned out to be 0.0036 µM in test [1] and 0.12 µM in test [2].

In the case of `Nc1nc2cc(CN3C(=O)c4cc(F)ccc4[C@]34CCN(Cc3cccc(-n5nccn5)c3)C4=O)[nH]c2cc1F` [Example 6, (S)-1′-(3-(2H-1,2,3-Triazol-2-yl)benzyl)-2-((5-amino-6-fluoro-1H-pyrrolo[3,2-b]pyridin-2-yl)methyl)-5-fluorospiro[isoindoline-1,3′-pyrrolidine]-2′,3-dione], the IC50 in test [1] was 0.0017 µM; in test [2] it was 0.054 µM.

Consider `Nc1nc2cc(CN3C(=O)c4cc(F)ccc4[C@]34CCN(CCOC(F)F)C4=O)[nH]c2cc1F` [Example 11, (S)-2-((5-Amino-6-fluoro-1H-pyrrolo[3,2-b]pyridin-2-yl)methyl)-1′-(2-(difluoromethoxy)ethyl)-5-fluorospiro[isoindoline-1,3′-pyrrolidine]-2′,3-dione], for which the IC50 in test [1] is 0.02 µM; in test [2], 0.81 µM.

As for `Cn1cc(C#CCN2CC[C@@]3(C2=O)c2ccc(F)cc2C(=O)N3Cc2cc3nc(N)c(F)cc3[nH]2)cn1` [Example 4, (S)-2-((5-Amino-6-fluoro-1H-pyrrolo[3,2-b]pyridin-2-yl)methyl)-5-fluoro-1′-(3-(1-methyl-1H-pyrazol-4-yl)prop-2-yn-1-yl)spiro[isoindoline-1,3′-pyrrolidine]-2′,3-dione], the values for the IC50 in test [1] and in test [2] were 0.0094 µM and 0.19 µM, respectively.

Regarding `Nc1nc2cc(CN3C(=O)c4cc(F)ccc4[C@]34CCN(CC#CC3CC3)C4=O)[nH]c2cc1F` [Example 20, (S)-2-((5-Amino-6-fluoro-1H-pyrrolo[3,2-b]pyridin-2-yl)methyl)-1′-(3-cyclopropylprop-2-yn-1-yl)-5-fluorospiro[isoindoline-1,3′-pyrrolidine]-2′,3-dione], the figures for the IC50 in test [1] and in test [2] were 0.0029 µM and 0.16 µM, respectively.

With `CC1(CN2CC[C@@]3(C2=O)c2ccc(F)cc2C(=O)N3Cc2cc3nc(N)cc(C#N)c3[nH]2)CC1` [Example 26, (S)-5-Amino-2-((5-fluoro-1′-((1-methylcyclopropyl)methyl)-2′,3-dioxospiro[isoindoline-1,3′-pyrrolidin]-2-yl)methyl)-1H-pyrrolo[3,2-b]pyridine-7-carbonitrile], the IC50 is 0.29 µM in test [3], 0.0031 µM in test [1], 0.093 µM in test [2] and 2.3 µM in test [4].

As for `Nc1nc2cc(CN3C(=O)c4cnccc4[C@]34CCN(Cc3ccc(F)cc3)C4=O)[nH]c2cc1F` (single isomer, unassigned) [Example 22], the IC50 in test [1] was 0.011 µM; in test [2] it was 0.51 µM.

Take `Cc1cc(F)cc2c1[C@]1(CCN(C)C1=O)N(Cc1cc3nc(N)c(F)cc3[nH]1)C2=O` [Example 23, (S)-2-((5-Amino-6-fluoro-1H-pyrrolo[3,2-b]pyridin-2-yl)methyl)-5-fluoro-1′,7-dimethylspiro[isoindoline-1,3′-pyrrolidine]-2′,3-dione]: the IC50 amounted to 0.16 µM in test [1] and 12 µM in test [2].

Regarding `N#Cc1ccc(CN2CC[C@@]3(C2=O)c2ccc(F)cc2C(=O)N3Cc2cc3nc(N)c(F)cc3[nH]2)cc1F` [Example 5, (S)-4-((2-((5-Amino-6-fluoro-1H-pyrrolo[3,2-b]pyridin-2-yl)methyl)-5-fluoro-2′,3-dioxospiro[isoindoline-1,3′-pyrrolidin]-1′-yl)methyl)-2-fluorobenzonitrile], the results for the IC50 in test [1] and in test [2] were 0.0057 µM and 0.17 µM, respectively.

On to `Nc1nc2cc(CN3C(=O)c4c(Cl)cccc4[C@]34CCN(Cc3ccc(F)cc3)C4=O)[nH]c2cc1F` [Example 21, (S)-2-((5-Amino-6-fluoro-1H-pyrrolo[3,2-b]pyridin-2-yl)methyl)-4-chloro-1′-(4-fluorobenzyl)spiro[isoindoline-1,3′-pyrrolidine]-2′,3-dione], for which the results for the IC50 in test [1] and in test [2] were 0.086 µM and 3.2 µM, respectively.

In the case of `Nc1nc2cc(CN3C(=O)c4ccncc4[C@]34CCN(Cc3ccc(F)cc3)C4=O)[nH]c2cc1F` (single isomer, unassigned) [Example 25], the results for the IC50 in test [1] and in test [2] were 0.014 µM and 0.44 µM, respectively.

For the origin of these results see US11939344B2, “Spirocyclic compounds” (ASTRAZENECA AB, priority 2021, dated 2024).
